From publication PMC5923120, “Acylhydrazones as Antifungal Agents Targeting the Synthesis of Fungal Sphingolipids” (Antimicrobial Agents and Chemotherapy, 2018)
In brackets after ≈: the same amount, converted by molar mass. Where two headings read alike, the source gives them in different places.

Experiments:
J774 = assay: In vitro toxicity (MTT), J774; format: cell-based, murine; settings: Mus musculus, cytotoxicity
Experimental: (§1) The murine macrophage cell line J774 and human cancer cell lines A549 and HepG2 were maintained in DMEM containing 10% fetal bovine serum (FBS) and 1% penicillin-streptomycin. At passage 7, 10^5 cells/well in DMEM containing 10% FBS were transferred into 96-well plates and cultured for 14 h for the cells to adhere to the wells. The compounds were added to the cells at concentrations ranging from 0.03 to 128 μg/ml. The wells without the compound served as controls. […] After 24 or 48 h, the supernatant was removed and 50 μl of 5-mg/ml 3-(4,5-dimethylthiazol-2-yl)-2,5-diphenyltetrazoliumbromide (MTT) solution in phosphate-buffered saline (PBS) was added to each well. The plates were incubated for an additional 4 h. The formazan crystal formed inside the cell was dissolved by adding 50 μl of dimethyl sulfoxide (DMSO). The optical density was measured at 570 nm.

C. neoformans = assay: In vitro susceptibility testing (MIC80); format: cell-based, Cryptococcus neoformans
Experimental: MICs were determined by following the methods of the Clinical and Laboratory Standards Institute (CLSI), with modifications. […] The compounds were serially diluted from 32 to 0.03 μg/ml in a 96-well plate. The inoculum was prepared as described in CLSI protocol M27A3 guidelines ([39]). […] The MICs were determined as the lowest concentration of the compound that inhibited 80% of growth compared to the control.

A549 = assay: In vitro toxicity (MTT), A549; format: cell-based; settings: Homo sapiens, cytotoxicity
Experimental: as §1

in vitro [1] = settings: mouse, microsomes; for remaining at 0 h, 2 μM: % remaining at 0 min; for remaining at 0.25 h, 2 μM: % remaining at 15 min; for remaining at 0.5 h, 2 μM: % remaining at 30 min; for remaining at 0.75 h, 2 μM: % remaining at 45 min; for remaining at 1 h, 2 μM: % remaining at 60 min
Experimental: (§3) To test for metabolic stability, 40 μl of 10 mM NADPH solution was added to each well of a 96-well plate. The final concentration of NADPH was 1 mM. The mixture was prewarmed at 37°C for 5 min. The negative-control samples were prepared by replacing NADPH solutions with 40 μl of ultrapure H2O. The negative control was used to exclude the misleading factor that resulted from the instability of the chemical itself. Samples with NADPH were prepared in duplicate. Negative controls were prepared in singlet. The reaction was started with the addition of 4 μl of 200 μM control compound or test compound solutions. […] An aliquot of 90 μl of the supernatant was mixed with 90 μl of ultrapure H2O and then used for LC-MS/MS analysis.

in vitro [2] = settings: human, microsomes; for remaining at 0 h, 2 μM: % remaining at 0 min; for remaining at 0.25 h, 2 μM: % remaining at 15 min; for remaining at 0.5 h, 2 μM: % remaining at 30 min; for remaining at 0.75 h, 2 μM: % remaining at 45 min; for remaining at 1 h, 2 μM: % remaining at 60 min
Experimental: as §3

C. albicans = assay: Mouse model of invasive candidiasis; format: in vivo, mice; settings: oral gavage 20 mg/kg/day, i.v. infection with 10^4 cells of C. albicans, after 21 days
Candida albicans 3022 = assay: Synergistic assay (FIC), CA Flu-R; format: cell-based
Experimental: (§2) Synergistic activity was assayed by calculating the fractional inhibitory index (FIC). Briefly, in a 96-well plate, drug A (D13) was serially diluted from 16 to 0.015 μg/ml (11 dilutions), whereas drug B (either fluconazole, amphotericin B, caspofungin, itraconazole, or voriconazole) was serially diluted from 12 to 0.19 μg/ml for fluconazole, 5 to 0.078 μg/ml for amphotericin B, or 8 to 0.007 μg/ml for caspofungin, itraconazole, or voriconazole (seven dilutions). The FIC was defined as (MIC combined/MIC drug A alone) + (MIC combined/MIC drug B alone). Synergism was categorized with the following scale: strongly synergistic effect, FIC of <0.5; synergistic effect, FIC of <1; additive effect, FIC of 1; no effect, FIC between 1 and 2; antagonistic effect, FIC of >2.

[3] = tested on: Aspergillus fumigatus 293; assay: Synergistic assay (FIC), AF; format: cell-based
Experimental: as §2

[4] = human, with NADPH
Experimental: as §3

P. murina = assay: Murine model of pneumocystosis; format: in vivo, mice; settings: i.p. 7.2 mg/kg/day
Experimental: C3H/HeN mice ordered from the National Cancer Institute were infected with P. murina pneumonia through exposure to mice with a fulminant P. murina infection (seed mice). These mice are immune suppressed by the addition of dexamethasone at 4 mg/liter to the drinking water. Sulfuric acid at 1 ml/liter was also added to the drinking water for disinfection. The seed mice were rotated within the cages for 2 weeks and then removed. After the mice had developed a moderate infection level (approximately 5 weeks), the mice were divided into a negative-control group (control steroid), positive-control group (trimethoprim-sulfamethoxazole), and D13 group. Compound was solubilized in DMSO for a stock solution of 50 mg/ml. Compound was refrigerated before and after solubilization. Stock solution was diluted in PBS to a final concentration of 1.8 mg/ml. Mice were intraperitoneally (i.p.) injected with 100 μl of diluted stock for a total dose of approximately 180 μg/day or 7.2 mg/kg/day based on average mouse weights of 25 g. […] Slides were made from the lung homogenates at different dilutions and stained with Diff-Quik to quantify the trophic forms and cresyl echt violet to quantify the asci. Efficacy is based on the reduction of organism burden between the treatment groups and the negative-control group as determined by microscopic evaluation.

[5] = mouse, with NADPH
Experimental: as §3

[6] = tested on: Cryptococcus neoformans H99; assay: Synergistic assay (FIC), CN; format: cell-based
Experimental: as §2

Candida krusei ATCC 6258 = assay: Synergistic assay (FIC), CK Flu R2; format: cell-based; settings: Pichia kudriavzevii, ATCC6258
Experimental: as §2

Candida krusei = assay: Synergistic assay (FIC), CK Flu R1; format: cell-based; settings: Pichia kudriavzevii
Experimental: as §2

Candida albicans A39 = assay: Synergistic assay (FIC), CA; format: cell-based
Experimental: as §2

[7] = Cryptococcus neoformans, ChemBridge compounds, Supplementary Table 1, read-out: MIC80
[8] = lowest concentration inhibiting 80% of growth

Row | Compound | IC50 (J774) | MIC80 (C. neoformans; [7]) | MIC80 (C. neoformans; [8]) | IC50 (A549) | half-life at 2 μM (in vitro [1]) | microsomal CLint at 2 μM (in vitro [1]) | remaining at 0 h, 2 μM (in vitro [1]; with NADPH) | remaining at 0 h, 2 μM (in vitro [1]; without NADPH) | remaining at 0.25 h, 2 μM (in vitro [1]; with NADPH) | remaining at 0.25 h, 2 μM (in vitro [1]; without NADPH) | remaining at 0.5 h, 2 μM (in vitro [1]; with NADPH) | remaining at 0.5 h, 2 μM (in vitro [1]; without NADPH) | remaining at 0.75 h, 2 μM (in vitro [1]; with NADPH) | remaining at 0.75 h, 2 μM (in vitro [1]; without NADPH) | remaining at 1 h, 2 μM (in vitro [1]; without NADPH) | half-life at 2 μM (in vitro [2]) | microsomal CLint at 2 μM (in vitro [2]) | remaining at 0 h, 2 μM (in vitro [2]; with NADPH) | remaining at 0 h, 2 μM (in vitro [2]; without NADPH) | remaining at 0.25 h, 2 μM (in vitro [2]; with NADPH) | also measured
1 | Cc1ccccc1C(=O)N/N=C/c1cc(Br)ccc1O [BHBM, (E)-N′-(3-bromo-6-hydroxybenzylidene)-2-methylbenzohydrazide] | 16 µg/mL (≈ 48 µM) | 1 µg/mL (≈ 3 µM) | 1 µg/mL (≈ 3 µM) | 32 µg/mL (≈ 96 µM) | 0.122 h | 189 µL/min/mg | 100% | 100% | 25.3% | 109% | 4.93% | 89.9% | 1.52% | 86.3% | 84.1% | 0.814 h | 28.4 µL/min/mg | 100% | 100% | 83.2% | remaining at 0.25 h, 2 μM (in vitro [2]; without NADPH): 101%; remaining at 0.5 h, 2 μM (in vitro [2]; with NADPH): 62.5%; remaining at 0.5 h, 2 μM (in vitro [2]; without NADPH): 88.5%; remaining at 0.75 h, 2 μM (in vitro [2]; with NADPH): 51.3%; remaining at 0.75 h, 2 μM (in vitro [2]; without NADPH): 81.2%; remaining at 1 h, 2 μM (in vitro [2]; without NADPH): 82.7%; mice that survived (C. albicans): 20%
2 | O=C(N/N=C/c1cc(Br)cc(Br)c1O)c1ccc(Br)cc1 [D13] | 16 µg/mL (≈ 33.5 µM) | 0.06 µg/mL (≈ 0.126 µM) | 0.06 µg/mL (≈ 0.126 µM) | > 128 µg/mL | 1.48 h | 15.7 µL/min/mg | 100% | 100% | 80.8% | 90.7% | 69.3% | 88.1% | 64.6% | 82.8% | 80.8% | 1.72 h | 13.4 µL/min/mg | 100% | 100% | 83.9% | MIC (Candida albicans 3022; Candida albicans, 3022, CA Flu-R): > 1 µg/mL; FIC score (Candida albicans 3022; D13 combined with itraconazole, C. albicans clinical isolates resistant to fluconazole): 0.37; MIC [3]: > 1 µg/mL; remaining at 1 h, 2 μM (in vitro [1]; with NADPH): ~60%; % remaining at 60 min [4]: 64.95%; number of asci or nuclei in lung homogenates (P. murina; untreated versus treated mice): No differences; survival (P. murina; versus negative control): did not show better survival; % remaining at 60 min [5]: 62.25%; MIC [6]: 0.5 µg/mL; remaining at 0.25 h, 2 μM (in vitro [2]; without NADPH): 96.5%; remaining at 0.5 h, 2 μM (in vitro [2]; with NADPH): 73%; remaining at 0.5 h, 2 μM (in vitro [2]; without NADPH): 86.5%; remaining at 0.75 h, 2 μM (in vitro [2]; with NADPH): 73.1%; remaining at 0.75 h, 2 μM (in vitro [2]; without NADPH): 81.9%; remaining at 1 h, 2 μM (in vitro [2]; with NADPH): ~60%; remaining at 1 h, 2 μM (in vitro [2]; without NADPH): 88.9%; MIC (Candida krusei ATCC 6258): > 1 µg/mL; MIC (Candida krusei): > 1 µg/mL; mice that survived (C. albicans): 20%; MIC (Candida albicans A39): > 1 µg/mL
